What was measured:
Settings in all cases: 72 h
Calu-3 [1] = assay: cell viability relative to DMSO; higher = less toxic
HepG2 [2] = assay: as above
U2OS [3] = assay: as above
Vero E6 [4] = assay: as above
Calu-3 [5] = assay: relative viability EC50 (midpoint between 100% and the lowest measured viability); higher = less toxic
HepG2 [6] = assay: as above
U2OS [7] = assay: as above
Vero E6 [8] = assay: as above
Calu-3 [9] = assay: drug sensitivity score (DSS) for viability; higher = more toxic; extreme values may be limits of the assay
HepG2 [10] = assay: as above
U2OS [11] = assay: as above
Vero E6 [12] = assay: as above
Caco-2 [13] = assay: cell viability relative to DMSO; higher = less toxic
Caco-2 [14] = assay: drug sensitivity score (DSS) for viability; higher = more toxic; extreme values may be limits of the assay
Caco-2 [15] = assay: relative viability EC50 (midpoint between 100% and the lowest measured viability); higher = less toxic

Row | SMILES | cell viability (Calu-3 [1]; 1 nM) | cell viability (Calu-3 [1]; 10 nM) | cell viability (Calu-3 [1]; 100 nM) | cell viability (Calu-3 [1]; 1000 nM) | cell viability (Calu-3 [1]; 10000 nM) | cell viability (HepG2 [2]; 1 nM) | cell viability (HepG2 [2]; 10 nM) | cell viability (HepG2 [2]; 100 nM) | cell viability (HepG2 [2]; 1000 nM) | cell viability (HepG2 [2]; 10000 nM) | cell viability (U2OS [3]; 1 nM) | cell viability (U2OS [3]; 10 nM) | cell viability (U2OS [3]; 100 nM) | cell viability (U2OS [3]; 1000 nM) | cell viability (U2OS [3]; 10000 nM) | cell viability (Vero E6 [4]; 1 nM) | cell viability (Vero E6 [4]; 10 nM) | cell viability (Vero E6 [4]; 100 nM) | cell viability (Vero E6 [4]; 1000 nM) | cell viability (Vero E6 [4]; 10000 nM) | relative viability EC50 (Calu-3 [5]) | relative viability EC50 (HepG2 [6]) | relative viability EC50 (U2OS [7]) | relative viability EC50 (Vero E6 [8]) | drug sensitivity score (Calu-3 [9]) | drug sensitivity score (HepG2 [10]) | drug sensitivity score (U2OS [11]) | drug sensitivity score (Vero E6 [12]) | cell viability (Caco-2 [13]; 1 nM) | cell viability (Caco-2 [13]; 10 nM) | cell viability (Caco-2 [13]; 100 nM) | cell viability (Caco-2 [13]; 1000 nM) | cell viability (Caco-2 [13]; 10000 nM) | drug sensitivity score (Caco-2 [14]) | relative viability EC50 (Caco-2 [15])
1 | O=C(O)CCCO [SODIUM OXYBATE] | 97.3% | 99% | 94.7% | 115% | 112% | 82.4% | 105% | 92.8% | 90.8% | 110% | 103% | 101% | 103% | 96.4% | 100% | 93.6% | 100% | 99.1% | 102% | 87.2% | > 10 µM | > 10 µM | > 10 µM | > 10 µM | 0 | 0 | 0 | 0 |  |  |  |  |  |  | 
2 | NC(=O)[C@H]1CCS[C@@H]2C[C@]3(CCCN3C(=O)Cc3ccc(NC(=O)COc4ccc(Cl)cc4Cl)cc3)C(=O)N12 [ST-2825] | 106% | 96.9% | 96.1% | 99.8% | 91.7% | 96.5% | 101% | 103% | 91.7% | 40.5% | 96.4% | 104% | 97.6% | 103% | 55.6% | 101% | 92.2% | 94.8% | 88.1% | 86.6% | > 10 µM | 2.05 µM |  | > 10 µM | 0 | 4.6 | 2 | 0.5 | 84.7% | 90.3% | 91.9% | 92.9% | 56% | 3.5 | 
3 | CC1=C(C(=O)OC(C)C)C(c2cccc([N+](=O)[O-])c2)C(C(=O)OC2CN(C(c3ccccc3)c3ccccc3)C2)=C(N)N1 (configuration not stated) [azelnidipine] | 92.8% | 106% | 101% | 96.8% | 109% |  |  |  |  |  | 101% | 97.5% | 98.3% | 98.1% | 90.4% | 91.4% | 97.5% | 92.1% | 96.2% | 88.1% | > 10 µM |  | > 10 µM | > 10 µM | 0 |  | 0 | 0 | 89% | 94.8% | 100% | 87.1% | 87.6% | 0 | > 10 µM
4 | CCN(CCO)CCCOc1ccc2c(Nc3cc(CC(=O)Nc4cccc(F)c4)[nH]n3)ncnc2c1 [barasertib-HQPA] | 95.1% | 93% | 97.2% | 92.6% | 94.2% | 99.5% | 99.7% | 77.8% | 72.8% | 78.8% | 94.4% | 95.8% | 93.7% | 91.7% | 87% | 93.8% | 96% | 98.2% | 91% | 88.2% | > 10 µM |  | > 10 µM | > 10 µM | 0 | 6.9 | 0 | 0 | 93% | 100% | 78.4% | 91.6% | 88.4% | 0.6 | > 10 µM
5 | CN(C)CCCN1c2ccccc2Sc2ccc(Cl)cc21 [chlorpromazine] | 110% | 97% | 109% | 102% | 73.8% | 96.5% | 102% | 105% | 91.3% | 52.4% | 98.9% | 100% | 93.6% | 102% | 86.2% | 98.5% | 98.8% | 97.4% | 99.6% | 56.9% |  |  | > 10 µM |  | 0.9 | 3.9 | 0.1 | 2.2 | 96.3% | 97.3% | 96.5% | 105% | 88.9% | 0 | > 10 µM
6 | CS[C@H]1SC[C@H]2C(=O)N(C)[C@@H](C(C)C)C(=O)OC[C@@H](NC(=O)c3cnc4ccccc4n3)C(=O)N[C@@H](C)C(=O)N(C)[C@@H]1C(=O)N(C)[C@@H](C(C)C)C(=O)OC[C@@H](NC(=O)c1cnc3ccccc3n1)C(=O)N[C@@H](C)C(=O)N2C [echinomycin] | 57.6% | 16% | 27.3% | 35.5% | 36.2% | 77.1% | 9.7% | 6.7% | 7% | 7.7% | 54.1% | 0.5% | 0.6% | 2.3% | 1.8% | 104% | 90.4% | 2.1% | 4.6% | 1% | < 0.001 µM | 0.0018 µM | 0.0011 µM | 0.024 µM | 41.3 | 42.9 | 47.9 | 31.7 | 63.1% | 54.7% | 57.2% | 63.2% | 75.9% | 22.8 | 
7 | CCCCc1ncc(/C=C(\Cc2cccs2)C(=O)O)n1Cc1ccc(C(=O)O)cc1 [eprosartan] | 93.8% | 94.9% | 101% | 106% | 109% |  |  |  |  |  | 100% | 101% | 99.3% | 102% | 95.9% | 104% | 97.7% | 100% | 97.1% | 101% | > 10 µM |  | > 10 µM | > 10 µM | 0 |  | 0 | 0 | 98.1% | 106% | 105% | 110% | 103% | 0 | > 10 µM
8 | O=C(CCCN1CCC(O)(c2ccc(Cl)cc2)CC1)c1ccc(F)cc1 [haloperidol] | 99.5% | 97.9% | 92.6% | 104% | 114% |  |  |  |  |  | 102% | 104% | 97.6% | 103% | 99.1% | 101% | 97.3% | 95.1% | 98.9% | 94.1% | > 10 µM |  | > 10 µM | > 10 µM | 0 |  | 0 | 0 | 110% | 104% | 97.1% | 100% | 103% | 0 | > 10 µM
9 | CCc1c2c(nc3ccc(OC(=O)N4CCC(N5CCCCC5)CC4)cc13)-c1cc3c(c(=O)n1C2)COC(=O)[C@]3(O)CC [irinotecan] | 103% | 94.7% | 93.7% | 69.3% | 47.5% | 95.4% | 99.2% | 76.9% | 37.5% | 21.7% | 104% | 97.4% | 98.1% | 88.7% | 59.1% | 94.3% | 97.4% | 95.6% | 95.8% | 75.2% | 0.679 µM | 0.244 µM |  | > 10 µM | 6.5 | 14.4 | 3.8 | 1.6 | 95.1% | 91.6% | 95.5% | 90.9% | 61.5% | 3.3 | 
10 | C[C@]1(O)C[C@@H](c2nc(-c3ccc4ccc(-c5ccccc5)nc4c3)c3c(N)nccn32)C1 [linsitinib] | 97.7% | 104% | 101% | 116% | 104% | 90.5% | 87% | 95.2% | 62% | 54.8% | 101% | 103% | 92.7% | 82.4% | 67.9% | 99.9% | 98.9% | 104% | 96.5% | 109% | > 10 µM |  |  | > 10 µM | 0 | 7.5 | 3.3 | 0 | 96.6% | 98.9% | 84.7% | 75.7% | 47.2% | 6.3 | 0.674 µM
11 | CCOC(=O)O[C@]1(C(=O)OCCl)CC[C@H]2[C@@H]3CCC4=CC(=O)C=C[C@]4(C)[C@H]3[C@@H](O)C[C@@]21C [loteprednol] | 98.8% | 100% | 103% | 87.7% | 95.2% |  |  |  |  |  | 105% | 102% | 100% | 93.4% | 98.1% | 102% | 100% | 102% | 99.2% | 96% | > 10 µM |  | > 10 µM | > 10 µM | 0.6 |  | 0 | 0 | 112% | 104% | 99.1% | 92.1% | 77.9% | 1.6 | > 10 µM
12 | CO[C@@H]1[C@H](N(C)C(=O)c2ccccc2)C[C@H]2O[C@]1(C)n1c3ccccc3c3c4c(c5c6ccccc6n2c5c31)C(=O)NC4 [midostaurin] | 89.5% | 88.5% | 102% | 67.3% | 43.3% | 97% | 94% | 93.9% | 53.9% | 44.3% | 102% | 99.2% | 103% | 59.6% | 29% | 110% | 101% | 94.3% | 63.9% | 36% | 0.885 µM | 0.369 µM | 0.897 µM | 0.793 µM | 7.1 | 9.3 | 8.8 | 7.8 | 108% | 111% | 97.4% | 74.9% | 63.3% | 4.7 | 
13 | OC(CNCC(O)C1CCc2cc(F)ccc2O1)C1CCc2cc(F)ccc2O1 (configuration not stated) [nebivolol] | 94.9% | 93.2% | 103% | 105% | 92.7% | 107% | 112% | 110% | 98.4% | 88.9% | 97.2% | 94.3% | 93.9% | 99.8% | 99.6% | 100% | 102% | 91.7% | 94.2% | 95.1% | > 10 µM | > 10 µM | > 10 µM | > 10 µM | 0 | 0 | 0 | 0 | 114% | 102% | 95.1% | 89.7% | 72.8% | 1.9 | 
14 | NC(=O)N1c2ccccc2CC(=O)c2ccccc21 [oxcarbazepine] | 96.1% | 93.6% | 82.6% | 105% | 95.1% | 90.8% | 92.3% | 115% | 90.7% | 87.5% | 101% | 100% | 101% | 96.7% | 99.1% |  |  |  |  |  | > 10 µM | > 10 µM | > 10 µM |  | 0 | 0.5 | 0 |  |  |  |  |  |  |  | 
15 | CCN1CCCC(OC(=O)C(c2ccccc2)c2ccccc2)C1 (configuration not stated) [piperidolate] | 99.1% | 95.2% | 102% | 105% | 89.3% | 105% | 89.1% | 115% | 97.8% | 110% | 98.4% | 100% | 100% | 100% | 92.4% | 98.8% | 98.7% | 98% | 98% | 98.2% | > 10 µM | > 10 µM | > 10 µM | > 10 µM | 0 | 0 | 0 | 0 | 89% | 90.3% | 70.2% | 79.2% | 77.9% | 7 | 
